Read-outs that look alike come from different tables or passages of the source.

A word on the inhibition: it is the percentage by which the read-out fell short of the control. A word on the Ki: it is a dissociation constant, usually derived from enzyme kinetics or from competition with a known ligand.

Assay [1] has as its target T1, equine BChE (eqBChE) (Equus caballus, UniProt P81908).
T1 construct: purchased Sigma-Aldrich (Milan, Italy)
As to the kind of experiment: Percent inhibition of eqBChE, Ellman's spectrophotometric method. The format is biochemical. The note with it: for inhibition at 0.9 µM: [I] 900 nM; for % inhibition vs eqBChE ± SD (900 uM): 900 nM. Here is the method:
On the synthesized compounds, enzymatic inhibition studies were carried out toward Electrophorus electricus AChE (EeAChE) and equine BChE (eqBChE) according to Ellman’s spectrophotometric method.[25]
All other chemical and biological reagents and solvents used were of the highest analytical, commercially available grade. The water, utilized for the preparation of the phosphate buffer and of the compound solutions, was distilled and filtered on nylon membrane filters with a 0.2 μm pore size with the Millipore Filtration apparatus before each use. Micropipettes Labmate (BRAND Dig. 10–100 μL; Dig. 100–1000 μL; Dig. 0.1–2 μL) and Transferpette (HIGH TECH LAB LM200: 20–200 μL; LM5000: 1000–5000 μL) were used to collect the samples. The assays were carried out by a double beam UV–vis Lambda 40 Perkin Elmer spectrophotometer using optical polystyrene cuvettes (10 × 10 × 45 mm, 340–800 nm optical transparency); each measure was repeated at least in triplicate. […] The spectrophotometric method of Ellman[25] with minor modifications was used to evaluate the inhibition of ChEs. […] EeAChE and eqBChE were periodically tested to evaluate the effective enzymatic activity.
For all the synthesized compounds, the percentages of inhibition toward AChE of Electrophorus electricus (EeAChE) and equine BChE (eqBChE) were evaluated.
Three milliliters of a solution in 0.1 M phosphate buffer (pH = 7.4) containing DTNB (0.25 mM) and EeAChE (0.083 UmL^–1) or eqBChE (0.083 UmL^–1) was placed in a polystyrene cuvette of 1.0 cm path length; 1 μL of a solution in DMSO of the tested compound was added to obtain a cuvette concentration range of 9–0.09 μM. With this solution, the blank was made. […] Each experiment was repeated at least in triplicate.

The target of assay [2] is T2, Aβ42 peptide (Homo sapiens, UniProt P05067).
T2 construct: expressed in transfected cells; host or cells: E. coli BL21 (DE3), pET28a
The assay is described as follows: Inhibition of Aβ42 aggregation in intact E. coli cells, thioflavin-S. Particulars: [I] = 100 μM. The format is cell-based, Escherichia coli. Here is the method: The anti-aggregating effect of the tested compounds was monitored by a cell-based assay in intact Escherichia coli cells that overexpress either the Aβ42 peptide or tau protein, which upon overexpression form insoluble inclusion bodies that were stained with thioflavin-S, an amyloid specific dye.[36] The percentages of inhibition toward Aβ42 and tau aggregation were determined at an inhibitor concentration of 100 μM, and the obtained results are reported in Table 7.
E. coli competent cells BL21 (DE3) were transformed with the pET28a vector (Novagen, Inc., Madison, WI, USA) carrying the DNA sequence of Aβ42. Because of the addition of the initiation codon ATG in front of both genes, the overexpressed peptide contains an additional methionine residue at its N terminus. For overnight culture preparation, an amount of 10 mL of the M9 minimal medium containing 50 μg·mL^–1 of kanamycin was inoculated with a colony of BL21 (DE3) bearing the plasmid to be expressed at 37 °C. For expression of the Aβ42 peptide, the required volume of overnight culture to obtain 1:500 dilution was added into the fresh M9 minimal medium containing 50 μg·mL^–1 of kanamycin and 250 μM Th-S. The bacterial culture was grown at 37 °C and 250 rpm. When the cell density reached OD600 = 0.6, an amount of 980 μL of culture was transferred into Eppendorf tubes of 1.5 mL with 10 μL of each compound to be tested in DMSO and 10 μL of isopropyl 1-thio-β-D-galactopyranoside (IPTG) at 100 mM. The final concentration of the drug was fixed at 100 μM. The samples were grown overnight at 37 °C and 1400 rpm using a ThermoMixer (Eppendorf, Hamburg, Germany). As negative control (maximal amyloid presence), the same amount of DMSO without the drug was added in the sample. In parallel, non-induced samples (in the absence of IPTG) were also prepared and used as positive controls (non-amyloid presence). In addition, these samples were used to assess the potential intrinsic toxicity of the compounds and to confirm the correct bacterial growth.
Th-S (T1892) and other chemical reagents were purchased from Sigma (St. Louis, MO). The Th-S stock solution ([…]) was prepared in double-distilled water purified through a Milli-Q system (Millipore, USA). Th-S fluorescence and absorbance were tracked using a DTX 800 plate reader Multimode Detector equipped with a Multimode Analysis Software (Beckman-Coulter, USA). Filters of 430/35 and 485/20 nm were used for the excitation and emission wavelengths, respectively. Filters of 535/25 nm were also used for the absorbance determination. To normalize the Th-S fluorescence as a function of the bacterial concentration, OD600 was obtained using a Shimadzu UV-2401 PC UV–vis spectrophotometer (Shimadzu, Japan). Note that the fluorescence normalization was carried out considering as 100% the Th-S fluorescence of the bacterial cells expressing the peptide or protein in the absence of drug and 0% the Th-S fluorescence of the bacterial cells not expressing the peptide or protein. A minimum of five independent assays (with three replicates for assay) was performed for each tested compound. More assays were performed to obtain a SEM < 5% with a maximum of 10 independent assays.

For assay [3], the target named is T1, equine BChE (eqBChE). The assay is described as follows: Inhibition constant and mechanism vs eqBChE, Dixon's method. Particulars: for inhibition mechanism on eqBChE: Dixon's plot, best fitting model; for α, eqBChE: mixed inhibition, α > 1 free enzyme, α < 1 enzyme–substrate complex; for Ki: three substrate and five inhibitor concentrations, read-out: Ki ± SD, eqBChE. The format is biochemical. The protocol: . The recorded data were analyzed with the enzyme kinetic module of SigmaPlot to find the best fitting model of inhibition using the linear regression analysis. The reference kinetic models used in the regression analysis were competitive, noncompetitive, uncompetitive, and mixed. Each determination was repeated five times, and incorrect values were discarded to reduce the standard deviation within the limit of 5%. In this way, the regression lines obtained have a linear regression coefficient (R^2) higher than 0.95. Dixon’s plots of all tested compounds are reported in the Supporting Information (Figures S1–S12).
18, 22, 25, 26, 28, and 30 toward eqBChE). For each compound, a 500 μM stock solution was prepared in H2O/DMSO or in 10^–2 M HCl and diluted in water to prepare solutions of opportune concentrations to introduce in the cuvette volumes ranging from 30 to 100 μL, to obtain the desired final concentrations. The maximum amount of DMSO used for the preparation of the stock solution was calculated to have a DMSO content in cuvette <0.033%.
Three milliliters of 0.1 M phosphate buffer (pH = 7.4) containing DTNB (0.25 mM) and EeAChE (0.083 UmL^–1) or eqBChE (0.083 UmL^–1) was mixed with the opportune volume of the inhibitor solution to obtain a final inhibitor concentration in cuvette between 90 and 1800 nM. With this solution, the blank was made. […]. The absorbance variations were measured at 412 nm at 25 °C between 0.5 and 1.5 min.
To determine the inhibition constants (Ki) and the inhibition mechanisms, the rates of hydrolysis at three different concentrations of substrate in the presence of five different concentrations of inhibitor were measured.

The mark [4] stands for this setting: [I] 9 μM, 0.0833 U/mL enzyme, 100 μM acetylthiocholine, read-out: % inhibition vs eqBChE ± SD.
The mark [5] stands for this setting: read-out: % inhibition vs eqBChE ± SD (9 uM), 9 uM, supplement csv.
The mark [6] stands for this setting: 0.0833 U/mL enzyme, 100 μM acetylthiocholine, read-out: % inhibition vs eqBChE ± SD.

T1 sequence (P81908 whole entry): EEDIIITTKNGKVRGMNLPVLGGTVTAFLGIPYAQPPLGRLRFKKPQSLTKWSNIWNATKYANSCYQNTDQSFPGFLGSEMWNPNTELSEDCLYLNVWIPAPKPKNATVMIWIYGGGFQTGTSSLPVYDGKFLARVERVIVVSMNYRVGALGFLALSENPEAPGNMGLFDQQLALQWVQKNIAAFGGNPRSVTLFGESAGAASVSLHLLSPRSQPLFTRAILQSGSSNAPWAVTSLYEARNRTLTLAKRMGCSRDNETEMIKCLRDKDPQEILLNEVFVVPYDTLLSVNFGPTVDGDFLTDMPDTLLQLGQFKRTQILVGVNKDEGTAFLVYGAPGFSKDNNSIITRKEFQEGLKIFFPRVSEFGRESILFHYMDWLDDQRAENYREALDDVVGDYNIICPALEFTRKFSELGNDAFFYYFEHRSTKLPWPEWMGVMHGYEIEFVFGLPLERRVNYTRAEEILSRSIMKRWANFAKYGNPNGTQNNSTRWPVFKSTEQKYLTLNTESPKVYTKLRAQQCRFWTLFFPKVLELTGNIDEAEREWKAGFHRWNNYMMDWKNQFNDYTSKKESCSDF
T2 sequence (P05067 672-713 limits assumed): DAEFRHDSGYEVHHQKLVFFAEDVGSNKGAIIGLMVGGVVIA

On to `c1ccc(CNCCCCCNc2ncccn2)cc1` [Compound 9, N^1-Benzyl-N^5-(pyrimidin-2-yl)pentane-1,5-diamine], for which the inhibition at 9 µM in assay [1] (setting [4]) and in assay [1] (setting [5]) was 17.4 ± 2.7% in each case. Further, 100 µM produced 5.8% inhibition in assay [2].

Consider `Oc1cccc(CNCCCCCCNc2ncccn2)c1O` [Compound 20, 3-(((6-(Pyrimidin-2-ylamino)hexyl)amino)methyl)benzene-1,2-diol], for which the inhibition at 9 µM in assay [1] (setting [4]) and in assay [1] (setting [5]) was 17.1 ± 1.6% in each case. The inhibition at 100 µM in assay [2] is 7.2%.

With `COc1ccccc1CNCCCCCCNc1ccccn1` [Compound 28, N^1-(2-Methoxybenzyl)-N^6-(pyridin-2-yl)hexane-1,6-diamine], in assay [3], the “inhibition mechanism on eqBChE” value is given as “mixed”; the “α, eqBChE” value is on record as 0.8; the Ki worked out at 3.43 ± 0.701 µM. Further, the inhibition at 0.9 µM in assay [1] (setting [6]) was determined as 24.2 ± 3.3%. Besides, the inhibition at 9 µM in assay [1] (setting [4]) worked out at 74.3 ± 1.4%. Besides, the inhibition at 9 µM in assay [1] (setting [5]) stood at 24.2 ± 3.3%. Moreover, 100 µM produced 22.3% inhibition in assay [2].

For the molecule `c1ccc(CNCCCCCCNc2ncccn2)cc1` [Compound 13, N^1-Benzyl-N^6-(pyrimidin-2-yl)hexane-1,6-diamine], the inhibition at 9 µM in assay [1] (setting [4]) and in assay [1] (setting [5]) was 26 ± 3.5% throughout. Besides, in assay [2], the inhibition at 100 µM is 21%.

Consider `Oc1cccc(CNCCCCCCNc2ncccn2)c1` [Compound 19, 3-(((6-(Pyrimidin-2-ylamino)hexyl)amino)methyl)phenol], for which the inhibition at 9 µM in assay [1] (setting [4]) and in assay [1] (setting [5]) was 26.6 ± 3.9% throughout. Besides, the inhibition at 100 µM in assay [2] turned out to be 16.7%.

Regarding `c1ccc(CNCCCCCCNc2ccccn2)cc1` [Compound 25, N^1-Benzyl-N^6-(pyridin-2-yl)hexane-1,6-diamine], in assay [3], the “inhibition mechanism on eqBChE” value was “mixed”; the “α, eqBChE” value was 2.2; the Ki was 2.37 ± 0.304 µM. Moreover, the inhibition at 0.9 µM in assay [1] (setting [6]) was 16.6 ± 6.3%. In assay [1] (setting [4]), the inhibition at 9 µM is 71.6 ± 2.1%. Further, in assay [1] (setting [5]), the inhibition at 9 µM came to 16.6 ± 6.3%. In assay [2], this molecule showed an inhibition at 100 µM of 16.8%.

`COc1cc(CNCCCCCCNc2ccccn2)ccc1O` [Compound 30, 2-Methoxy-4-(((6-(pyridin-2-ylamino)hexyl)amino)methyl)phenol]: in assay [3], the “inhibition mechanism on eqBChE” value is “mixed”; the “α, eqBChE” value is reported as 1.4; the Ki came to 1.1 ± 0.189 µM. Besides, the “% inhibition vs eqBChE ± SD (900 uM)” value in assay [1] (supplement csv) was found to be 15.6 ± 6.1%. The inhibition at 0.09 µM in assay [1] ([I] 90 nM, 0.0833 U/mL enzyme, 100 μM acetylthiocholine, read-out: % inhibition vs eqBChE ± SD) was 15.6 ± 6.1%. Also, the inhibition at 0.9 µM in assay [1] (setting [6]) was determined as 51%. For the same molecule, in assay [1] (setting [4]), the inhibition at 9 µM is 91%. Also, the inhibition at 9 µM in assay [1] (setting [5]) amounted to 51.2 ± 3.1%. For the same molecule, the inhibition at 100 µM in assay [2] was 13.6%.

Regarding `COc1cc(CNCCCCCCNc2ncccn2)ccc1O` [Compound 18, 2-Methoxy-4-(((6-(pyrimidin-2-ylamino)hexyl)amino)methyl)phenol], in assay [3], the “inhibition mechanism on eqBChE” value is recorded as “mixed”; the “α, eqBChE” value is recorded as 7.3; the Ki was 3.03 ± 0.604 µM. Besides, the “% inhibition vs eqBChE ± SD (900 uM)” value in assay [1] (supplement csv) is on record as 44.2 ± 6.4%. In assay [1] (setting [6]), the inhibition at 0.9 µM stood at 44%. Moreover, in assay [1] (setting [4]), the inhibition at 9 µM came to 84%. For the same molecule, in assay [1] (setting [5]), the inhibition at 9 µM was determined as 84.4 ± 0.8%. For the same molecule, in assay [2], testing at 100 µM gave an inhibition of 1.7%.

For the molecule `Brc1ccc(CNCCCCCCNc2ccccn2)cc1` [Compound 26, N^1-(4-Bromobenzyl)-N^6-(pyridin-2-yl)hexane-1,6-diamine], in assay [3], the “inhibition mechanism on eqBChE” value is on record as “mixed”; the “α, eqBChE” value is listed as 0.5; the Ki amounted to 3.46 ± 1.48 µM. Besides, the inhibition at 0.9 µM in assay [1] (setting [6]) came out at 17 ± 2.7%. In assay [1] (setting [4]), the inhibition at 9 µM was 76.8 ± 0.5%. Besides, in assay [1] (setting [5]), the inhibition at 9 µM was found to be 17 ± 2.7%. The same molecule showed an inhibition at 100 µM in assay [2] of 7.3%.

Regarding `c1ccc(CNCCCCCNc2ccccn2)cc1` [Compound 23, N^1-Benzyl-N^5-(pyridin-2-yl)pentane-1,5-diamine], the inhibition at 0.9 µM in assay [1] (setting [6]) amounted to 5 ± 5.8%. Besides, the inhibition at 9 µM is 56.5 ± 3% in assay [1] (setting [4]) and 5 ± 5.8% in assay [1] (setting [5]). This molecule displayed an inhibition at 100 µM in assay [2] of 10.4%.

For the molecule `c1cnc(NCCCCCCNCc2c[nH]c3ccccc23)nc1` [Compound 22, N^1-((1H-Indol-3-yl)methyl)-N^6-(pyrimidin-2-yl)hexane-1,6-diamine], in assay [3], the “inhibition mechanism on eqBChE” value is “mixed”; the “α, eqBChE” value was determined as 10; the Ki stood at 0.099 ± 0.071 µM. In addition, the “% inhibition vs eqBChE ± SD (900 uM)” value in assay [1] (supplement csv) amounted to 65.1 ± 3.8%. The inhibition at 0.9 µM in assay [1] (setting [6]) was 65%. Further, the “% inhibition vs eqBChE ± SD” value in assay [1] ([I] 9 μM, 0.0833 U/mL enzyme, 100 μM acetylthiocholine) turned out to be 94.0 ± 0.7%. Moreover, the inhibition at 9 µM in assay [1] (setting [4]) was 94%. For the same molecule, the inhibition at 9 µM in assay [1] (setting [5]) was determined as 94 ± 0.7%. The molecule also registered an inhibition at 100 µM in assay [2] of 9.7%.

Source of the values: article PMC8569681, “New Pyrimidine and Pyridine Derivatives as Multitarget Cholinesterase Inhibitors: Design, Synthesis, and In Vitro and In Cellulo Evaluation” (ACS Chemical Neuroscience, 2021).
